# Reference: patent publication US20120315290A1, “INHIBITORS OF LL-37 MEDIATED IMMUNE REACTIVITY TO SELF NUCLEIC ACIDS” (BOARD OF REGENTS, THE UNIVERSITY OF TEXAS SYSTEM, priority 2006, published 2012)
# Assays:
# [1] = tested on: Thy1.2 positive CD4 T cells; test: Adjuvant activity: expansion of transferred HNT-TCR Tg CD4+ T cells in draining LN; format: in vivo, BALB/c Thy1.1 mice; conditions: 35 μg s.c. with A20 lysate plus HNT peptide
# Protocol: CD4+ T cells were purified from spleen and LN of HNT-TCR Tg mice (Thy 1.2), labeled with CFSE, and adoptively transferred (1×10^6) into BALB/c Thy1.1 mice. Next day, mice were immunized s.c. with (a) 5×10 ^6 A20 lysate plus HNT peptide and CpG-2216 ([…]); (b) A20 lysate plus HNT peptide and LL-37 ([…]); (c) A20F lysate plus HNT peptide; or (d) left untreated. Four days after immunization draining LN were harvested and Thy 1.2 positive CD4 T cells were measured by flow cytometry.
# In another set of experiments, CD4+ T cells were purified from spleen and LN of HNT-TCR Tg mice (Thy 1.2), labeled with CFSE, and adoptively transferred (1×10^6) into BALB/c Thy1.1 mice. Next day, mice were immunized subcutaneously with 5×10^6 A20 lysate plus HNT peptide and CpG-2216 (35 μg), A20 lysate plus HNT peptide and LL-37 (35 μg), A20F lysate plus HNT peptide, or left untreated. Four days after immunization draining LN were harvested and Thy1.2 positive CD4 T cells were measured by flow cytometry.
# [2] = tested on: B16 tumor; test: Intratumoral injection into established B16 melanoma, tumor size; format: in vivo, C57BL/6 mice
# Protocol: Mice bearing a 7-d subcutaneous B16 melanoma were injected with […] of LL-37 once (single), or repeatedly for 3 days (3×). Control injections were done with PBS. Tumor size was monitored by caliper every second day. Data represent mean of 4 mice per group.
# Intratumoral injection of LL-37 elicits potent anti-tumor activity. 3×10^5 B16 tumor cells were inoculated into shaved flanks of C57BL/6 mice. Tumors were allowed to grow for 7 days. On day 7, tumors were either injected with a single dose of LL-37 (100 μg), injected daily for 3 consecutive days with LL-37 or injected with saline as a control. Tumor size was monitored with a caliper and volumes estimated using the formula π/6×length×width^2. The experiment was stopped 12 days after injection because all mice in the control group had died or their tumor had reached 20 mm in their maximal diameter. […] Thus, intratumoral LL-37 injection induces potent anti-tumor activity.
# [3] = tested on: human genomic DNA; test: Complex formation with DNA (ethidium bromide intercalation, size exclusion HPLC); format: binding
# Description: (A) Emission spectra of human genomic DNA intercalated with Ethimidium bromide in the presence of increasing doses of LL-37. (B) Size exclusion HPLC of LL-37 alone, mut-LL-37 alone or DNA premixed with LL-37 or mut-37. […] Absorbance scales are different to accommodate the DNA peak.
# [4] = tested on: plasmacytoid dendritic cells (pDC); test: IFN-α and cytokine production by purified human pDC (ELISA of supernatants); format: cell-based
# [5] = tested on: plasmacytoid dendritic cells (pDC); test: as above; format: cell-based; remark: listed apart in the source
# Description: PDC from healthy donors were purified from freshly collected buffy coats. Briefly, PBMC were isolated by Ficoll-Hypaque density gradient centrifugation (GE Healthcare, Piscatway, N.J.) followed by positive sorting using anti-BDCA4-conjugated magnetic microbeads (Miltenyi Biotec, Auburn, Calif.). The recovered cells were stained with PE-Cy5-conjugated anti-CD4, APC-conjugated CD11c, and a cocktail of FITC-conjugated anti-CD3, anti-CD14, anti-CD16, anti-CD15, anti-CD20 and anti-CD56 (Lineage-FITC) (BD Pharmingen, San Diego, Calif.). The CD4+CD11c-Lin- (pDC precursors) were isolated by cell sorting. Purity was routinely >99%. PDC (5-10×10^4/well) were cultured in 96-well round-bottom plates in RPMI 1640 (GIBCO, Carlsbad, Calif.) supplemented with 10% FCS (Atlanta Biologicals, Lawrenceville, Ga.). Where indicated, pDC were stimulated with CpGA (1 μM), CpGB (1 μM), R837 (10 ug/ml), IRS (4 uM), non-CpG sequence (4 uM), and different concentrations of LL-37 and of human genomic DNA. To prepare LL-37.DNA complexes, CpGB, huDNA, non-CpG and LL-37 were mixed by inversion and incubated for 30 min at room temperature before being added to the cells.
# Supernatants samples were taken after 18-24 h after addition of the stimuli. Human IFN-α was measured using a human IFN-α ELISA kit (PBL Biomedical Laboratories, New Brunswick, N.J.) according to the company's instructions. IL-6 and TNF-α were detected using a kit for human IL6 and TNF-α (R&D Systems), respectively.
# [6] = tested on: U937; test: Binding and protection of DNA released by dying tumor cells (electrophoresis of supernatants); format: cell-based, human; conditions: irradiated tumor cells, 24 h culture
# Protocol: (a) U937 were UV-irradiated to induce apoptosis and cultured for 24 h, or rendered necrotic by repeated freeze/thaw cycles and stained with Annexin V and PI to visualize apoptosis and necrosis. (b) 5×10^6 live U937 cells (lines 1+2), or apoptotic UV-irradiated U937 (lines 3+4) were cultured for 24 h either alone or in the presence of LL-37 ([…]) before cell free supernatant was collected. U397 were also lyzed by freeze-thaw cycles to induce primary necrosis and cultured for 1 h either alone or in the presence of LL-37 ([…]) before cell free supernatant was collected. 20 ul of the supernatants in buffer were loaded onto 1% agarose gel and the electrophoresis was ran for 1.5 hrs at 100V. The image was acquired with a Biorad gel imaging system.
# LL-37 combined with dying tumor cells can bind tumor-derived self-DNA in-vitro. To test the ability of LL-37 to bind and protect self-DNA released by dying tumor cells, we generated apoptotic and necrotic tumor cells in the presence or absence of LL-37, and measured DNA contents in culture supernatants by electrophoresis. Primary necrosis induced by consecutive freeze and thaw cycles, and apoptosis with secondary necrosis induced by γ-irradiation at 20,000 rad followed by a 24 h culture (at 5×10^6 cells in 500 μl) were confirmed by Annexin plus PI staining (FIG. 26a).
sequence,measurement,setting,value
LLGDFFRKSKEKIGKEFKRIVQRIKDFLRNLVPRTES [LL-37],Induction of T cell mediated immunity (adjuvant activity),[1],potent adjuvant activity
same,"Growth of established B16 tumor, single intratumoral injection",[2]; 100 μg on day 7,significantly delayed the growth of established B16 tumor
same,"Anti-tumor response, repeated intratumoral injection",[2]; three consecutive days,showed a trend towards a better anti-tumor response
same,Complex formation with DNA,[3],complexed with DNA
same,Clump formation of pDC,[4],induced pDC to form clumps
same,Maturation of pDC,[4]; not shown,did not induce maturation of pDC
same,IFN-α in pDC stimulated with non-CpG-ODN sequences plus LL-37,[5],induce significant levels of IFN-α
same,"IFN-α production by pDC stimulated with nucleic acid alone or combined with LL-37, as labelled",[5],converts genomic DNA of human and bacterial origin into potent IFN-α inducers
same,IL-6 production by pDC,[5]; LL-37 10 μM,only induced IFN-α but not IL-6 or TNF-α
same,TNF-α production by pDC,[5]; LL-37 10 μM,only induced IFN-α but not IL-6 or TNF-α
same,IFN-α by pDC relative to phosphothiorate CpG-B alone,[5]; LL-37 added to phosphodiesteric or phosphothiorate CpG-B,approximately 10 fold
same,IFN-α produced by pDC (mean),"[5]; pDC cultured with LL-37, 10% serum in culture medium, n=10",950 pg/ml
same,IFN-α produced by pDC (range),"[5]; pDC cultured with LL-37, n=10",200-4000 pg/ml
same,DNA detected in culture supernatants of dying tumor cells,[6],exclusively detected DNA in supernatants of irradiated tumor cells cultured with LL-37
